Each structure is given as a SMILES string.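 Where inhibition never reached the appropriate level, the endpoint shown equals the highest concentration tested. Otherwise, values were interpolated linearly from a five-concentration, 48-hour dose response in 96-well plates. At the GI50, growth is halved.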 The source made the active and inactive calls. Rule as the data show it: active = GI50 up to about 1.1 µM and inactive = higher. Where only a bound is given, the exact number is not on record here.

Some test systems named below: BT-549; UACC-62; MOLT-4; HCT-116; RXF 393; OVCAR-5; SF-295; SNB-75; IGROV-1; SK-MEL-5; CCRF-CEM; COLO 205; SK-MEL-28; MDA-MB-435; HL-60; M14; Hs-578T; SR; MDA-N.
Holding throughout (assay): DTP human tumour cell line panel, 48 h

What is called GI50 is the concentration that inhibits growth by half. For the compound `Cc1cn(C2CC(N)C(CN)O2)c(=O)[nH]c1=O` (stereo not given), the GI50 in the experiment with BT-549, in the experiment with UACC-62, with MOLT-4, in the experiment with HCT-116, in the experiment on RXF 393 and with OVCAR-5 was > 100 µM (inactive) throughout. The GI50 with SF-295 was > 100 µM (inactive); in the experiment with SNB-75 it was 38.5 µM (inactive); with IGROV-1 it was > 100 µM (inactive); with SK-MEL-5 it was > 100 µM (inactive); with CCRF-CEM, > 100 µM (inactive); in the experiment with COLO 205 it was > 100 µM (inactive). The GI50 in the experiment on SK-MEL-28, with MDA-MB-435, in the experiment with HL-60, in the experiment with M14, with Hs-578T and with SR was > 100 µM (inactive) throughout. For the same compound, the GI50 in the experiment on MDA-N was 35.6 µM (inactive).
In the case of `O=C1c2c(ccc3c2CCCC3)CC1Cc1ccc2c(c1)CCCC2` (stereo not given), the GI50 in the experiment on BT-549 was > 100 µM (inactive); in the experiment on UACC-62 it was 48 µM (inactive); in the experiment with MOLT-4, 35 µM (inactive); with HCT-116 it was 25.5 µM (inactive); in the experiment with RXF 393, 14.3 µM (inactive); in the experiment with OVCAR-5 it was > 100 µM (inactive). Moreover, the GI50 with SF-295 is 33.8 µM (inactive); with SNB-75, 4.68 µM (inactive); in the experiment with IGROV-1 it was > 100 µM (inactive); with SK-MEL-5, 22.6 µM (inactive); with CCRF-CEM it was 21.3 µM (inactive); with COLO 205, 30.8 µM (inactive). The GI50 in the experiment with SK-MEL-28 is > 100 µM (inactive); with MDA-MB-435, 34 µM (inactive); in the experiment with HL-60, 5.46 µM (inactive); with M14, 35.7 µM (inactive); in the experiment with Hs-578T, 20 µM (inactive); in the experiment on SR, 9.08 µM (inactive). The GI50 with MDA-N is 39 µM (inactive).
On to `NC(=O)c1cc2ccc(O)cc2o/c1=N/NC(=O)c1ccccc1`, for which the GI50 with BT-549 is 52.2 µM (inactive); in the experiment with UACC-62, 62.2 µM (inactive); in the experiment with MOLT-4 it was 35.1 µM (inactive); in the experiment with HCT-116, 66.2 µM (inactive); in the experiment on RXF 393, 40.6 µM (inactive); in the experiment on OVCAR-5, > 100 µM (inactive). Moreover, the GI50 in the experiment on SF-295 is > 100 µM (inactive); with SNB-75, 25.9 µM (inactive); in the experiment on IGROV-1, 46.7 µM (inactive); in the experiment with SK-MEL-5, 39.8 µM (inactive); in the experiment on CCRF-CEM, 48.6 µM (inactive); with COLO 205, > 100 µM (inactive). Besides, the GI50 with SK-MEL-28 is 76.4 µM (inactive); with MDA-MB-435, 74.3 µM (inactive); in the experiment on HL-60 it was 61 µM (inactive); in the experiment with M14 it was 86.5 µM (inactive); with Hs-578T, 81.3 µM (inactive); with SR, 22.2 µM (inactive). Also, in the experiment with MDA-N, the GI50 was 72.8 µM (inactive).
`O=C1NC(c2ccccc2)C1N(Cc1ccccc1)Cc1ccccc1` (stereo not given): the GI50 is > 100 µM (inactive) with BT-549; 93.1 µM (inactive) in the experiment on UACC-62; > 100 µM (inactive) in the experiment on MOLT-4; > 100 µM (inactive) in the experiment with HCT-116; > 100 µM (inactive) in the experiment with RXF 393; > 100 µM (inactive) with OVCAR-5. For the same compound, the GI50 was > 100 µM (inactive) in the experiment on SF-295; 25.5 µM (inactive) in the experiment with SNB-75; > 100 µM (inactive) in the experiment on IGROV-1; > 100 µM (inactive) in the experiment with SK-MEL-5; > 100 µM (inactive) with CCRF-CEM; > 100 µM (inactive) in the experiment with COLO 205. The GI50 was > 100 µM (inactive) in the experiment with SK-MEL-28; > 100 µM (inactive) with MDA-MB-435; > 100 µM (inactive) in the experiment on HL-60; > 100 µM (inactive) with M14; 61.2 µM (inactive) with Hs-578T; > 100 µM (inactive) with SR. For the same compound, the GI50 in the experiment on MDA-N is > 100 µM (inactive).
With `CC1=C(C(=O)OC(C)C)C(c2ccccc2[N+](=O)[O-])C(C(=O)OC(CO[N+](=O)[O-])CO[N+](=O)[O-])=C(C)N1` (stereo not given), the GI50 was 3.52 µM (inactive) with BT-549; 2.07 µM (inactive) in the experiment with UACC-62; 1.46 µM (inactive) with MOLT-4; 2.55 µM (inactive) with HCT-116; 2.7 µM (inactive) in the experiment on RXF 393; 13.8 µM (inactive) in the experiment on OVCAR-5. Moreover, the GI50 with SF-295 was 2.1 µM (inactive); in the experiment with SNB-75 it was 1.54 µM (inactive); in the experiment on IGROV-1 it was 5.26 µM (inactive); in the experiment with SK-MEL-5, 2.7 µM (inactive); with CCRF-CEM it was 2.09 µM (inactive); in the experiment with COLO 205 it was 5.24 µM (inactive). For the same compound, the GI50 is 4.01 µM (inactive) in the experiment with SK-MEL-28; 3.48 µM (inactive) in the experiment on MDA-MB-435; 6.25 µM (inactive) with HL-60; 3.74 µM (inactive) in the experiment on M14; 3.36 µM (inactive) in the experiment on Hs-578T; 18.6 µM (inactive) with SR. The GI50 in the experiment on MDA-N was 2.79 µM (inactive).
Regarding `C[C@H](CCC(=O)O)[C@H]1CC[C@H]2[C@@H]3[C@H](O)C[C@@H]4C[C@H](O)CC[C@]4(C)[C@H]3C[C@H](O)[C@]12C`, the GI50 with BT-549, in the experiment with UACC-62, with MOLT-4, with HCT-116, in the experiment with RXF 393 and with OVCAR-5 was > 100 µM (inactive) throughout. In addition, the GI50 with SF-295, in the experiment on SNB-75, with IGROV-1, in the experiment on SK-MEL-5, in the experiment on CCRF-CEM and in the experiment with COLO 205 was > 100 µM (inactive) in each case. The GI50 with SK-MEL-28, in the experiment with MDA-MB-435, in the experiment on HL-60, with M14, in the experiment with Hs-578T and in the experiment with SR was > 100 µM (inactive) in each case. The GI50 in the experiment on MDA-N was > 100 µM (inactive).
With `CSc1nc(N)c(NC2OC(CO)C(O)C2O)c(=O)[nH]1` (stereo not given), the GI50 in the experiment on BT-549, with UACC-62, with MOLT-4, in the experiment with HCT-116, in the experiment on RXF 393 and in the experiment with OVCAR-5 was > 100 µM (inactive) each time. Moreover, the GI50 in the experiment with SF-295, in the experiment on SNB-75, in the experiment on IGROV-1, in the experiment with SK-MEL-5, in the experiment on CCRF-CEM and in the experiment with COLO 205 was > 100 µM (inactive) each time. Moreover, the GI50 with SK-MEL-28, with MDA-MB-435, in the experiment on HL-60, with M14, in the experiment with Hs-578T and in the experiment on SR was > 100 µM (inactive) in each case. Further, in the experiment on MDA-N, the GI50 is > 100 µM (inactive).
As to `CC1(C)C(C(=O)OC(C#N)c2cccc(OCC(=O)OCc3ccccc3)c2)C1(C)C` (stereo not given), the GI50 in the experiment with BT-549 is > 100 µM (inactive); in the experiment on UACC-62, > 100 µM (inactive); with MOLT-4, 18 µM (inactive); with HCT-116, 40.4 µM (inactive); in the experiment with RXF 393, > 100 µM (inactive); in the experiment on OVCAR-5, > 100 µM (inactive). Moreover, the GI50 with SF-295 was > 100 µM (inactive); in the experiment with SNB-75, 41.5 µM (inactive); in the experiment with IGROV-1 it was > 100 µM (inactive); in the experiment on SK-MEL-5 it was > 100 µM (inactive); with CCRF-CEM, 19.5 µM (inactive); with COLO 205 it was > 100 µM (inactive). Moreover, the GI50 in the experiment with SK-MEL-28 was 63.2 µM (inactive); in the experiment with MDA-MB-435, > 100 µM (inactive); in the experiment on HL-60 it was 2.3 µM (inactive); with M14 it was 48.6 µM (inactive); in the experiment with Hs-578T, > 100 µM (inactive); with SR it was 0.251 µM (active). Further, the GI50 in the experiment with MDA-N is > 100 µM (inactive).
For the compound `C/C(=N/CC(=O)O)c1ccccc1`, the GI50 in the experiment on BT-549 is 61 µM (inactive); in the experiment with UACC-62, > 100 µM (inactive); in the experiment with MOLT-4 it was 70.5 µM (inactive); with HCT-116, > 100 µM (inactive); in the experiment on RXF 393 it was > 100 µM (inactive); with OVCAR-5 it was > 100 µM (inactive). The GI50 was > 100 µM (inactive) in the experiment with SF-295; > 100 µM (inactive) in the experiment with SNB-75; > 100 µM (inactive) with IGROV-1; 89.5 µM (inactive) in the experiment with SK-MEL-5; 27.8 µM (inactive) with CCRF-CEM; > 100 µM (inactive) in the experiment with COLO 205. For the same compound, the GI50 is > 100 µM (inactive) in the experiment with SK-MEL-28; > 100 µM (inactive) in the experiment with MDA-MB-435; 35.9 µM (inactive) in the experiment with HL-60; > 100 µM (inactive) in the experiment on M14; > 100 µM (inactive) with Hs-578T; 65 µM (inactive) in the experiment on SR. For the same compound, the GI50 in the experiment on MDA-N is > 100 µM (inactive).
As for `C[C@]12CC[C@H]3[C@@H](CCC4=C[C@@H](OC5OCC(OC6OC(CO)C(O)C(O)C6O)C(O)C5O)CC[C@@]43C=O)[C@@]1(O)CCC2C1=CC(=O)OC1` (stereo not given in full), the GI50 in the experiment on BT-549 is 0.211 µM (active); in the experiment on UACC-62 it was 1.81 µM (inactive); in the experiment with MOLT-4 it was 0.0986 µM (active); in the experiment on HCT-116 it was 0.322 µM (active); in the experiment with RXF 393 it was 0.23 µM (active); in the experiment on OVCAR-5 it was 1.86 µM (inactive). The GI50 with SF-295 is 0.638 µM (active); with SNB-75, 1.4 µM (inactive); with IGROV-1, 0.351 µM (active); with SK-MEL-5 it was 0.385 µM (active); in the experiment on CCRF-CEM, 0.244 µM (active); in the experiment on COLO 205 it was 1.35 µM (inactive). Besides, the GI50 in the experiment with SK-MEL-28 is 2.57 µM (inactive); with MDA-MB-435, 0.843 µM (active); with HL-60, 0.244 µM (active); in the experiment with M14, 1.21 µM (inactive); with Hs-578T, 0.522 µM (active); in the experiment with SR, 0.221 µM (active). In addition, the GI50 in the experiment on MDA-N was 1.01 µM (active).

The record behind these values is ChEMBL document CHEMBL1201862, “PubChem BioAssay data set” (2004).
